Source: publication PMC3947174 (Structure (London, England : 1993), 2013)
Ends that are not written are not given here. Ahx = NCCCCCC(=O)O

Columns and labels:
CALP (CAL PDZ domain) [1] = target: T1, CALP (CAL PDZ domain) (Homo sapiens, UniProt Q9HD26); assay: FP competition; format: binding; settings: reporter F*-iCAL36, PDZ ~[…] Kd, triplicate experiments
N1P1 (NHERF1 PDZ1) = target: T2, N1P1 (NHERF1 PDZ1) (Homo sapiens, UniProt O14745); assay: FP displacement binding to NHERF1 PDZ1
T2 sequence (O14745 14-94 limits assumed): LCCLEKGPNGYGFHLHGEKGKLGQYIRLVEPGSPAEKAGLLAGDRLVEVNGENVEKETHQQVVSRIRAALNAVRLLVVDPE

N1P2 (NHERF1 PDZ2) = target: T3, N1P2 (NHERF1 PDZ2) (Homo sapiens, UniProt O14745); assay: FP displacement binding to NHERF1 PDZ2
T3 sequence (O14745 154-234 limits assumed): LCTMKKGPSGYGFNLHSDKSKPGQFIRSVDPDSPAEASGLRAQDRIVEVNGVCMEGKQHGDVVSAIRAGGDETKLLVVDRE

N2P1 (NHERF2 PDZ1) = N2P1 (NHERF2 PDZ1) (Homo sapiens, UniProt Q15599); assay: FP displacement binding to NHERF2 PDZ1
N2P2 (NHERF2 PDZ2) = N2P2 (NHERF2 PDZ2) (Homo sapiens, UniProt Q15599); assay: FP displacement binding to NHERF2 PDZ2
iCAL36 = assay: fluorescence polarization competition; settings: cited from earlier work
CFTR (Homo sapiens) = assay: fluorescence polarization competition; settings: cited from earlier work
iCAL36L = assay: fluorescence polarization competition; settings: cited from earlier work
CALP (CAL PDZ domain) [2] = target: T1, CALP (CAL PDZ domain); settings: K*-designed hexamer; ref Roberts et al., 2012; cited from earlier work
F*-CFTR6 = target: T4, F*-CFTR6 (Homo sapiens); assay: fluorescence polarization
T4 chain: {Fluorescein-Ahx}-VQDTRL

iCAL36TRL = target: T5, iCAL36TRL; assay: fluorescence polarization competition
T5 chain: ANSRWPTTRL

iCAL36Q-4 = target: T6, iCAL36Q-4; assay: fluorescence polarization competition
T6 chain: ANSRWQTSII

iCAL36VQD-3 = target: T7, iCAL36VQD-3; assay: fluorescence polarization competition
T7 chain: ANSRVQDSII

iCAL36QDTRL = target: T8, iCAL36QDTRL; assay: fluorescence polarization competition
T8 chain: ANSRWQDTRL

CC(C)C[C@H](NC(=O)[C@H](CCCNC(=N)N)NC(=O)[C@@H](NC(=O)[C@@H](NC(=O)[C@H](CCC(N)=O)NC(=O)[C@@H](NC(=O)[C@H](CCC(=O)O)NC(=O)[C@H](CCC(=O)O)NC(=O)[C@H](CCC(=O)O)NC(=O)[C@@H](N)[C@@H](C)O)C(C)C)[C@@H](C)O)[C@@H](C)O)C(=O)O [CFTRT^-3]
Ki (CALP (CAL PDZ domain) [1]): 18 ± 5.5 µM | Ki (N1P1 (NHERF1 PDZ1)): 0.76 ± 0.51 µM | Ki (N1P2 (NHERF1 PDZ2)): 4.6 ± 1.6 µM | Ki (N2P1 (NHERF2 PDZ1)): 1.3 ± 0.4 µM | Ki (N2P2 (NHERF2 PDZ2)): 0.45 ± 0.25 µM

CC[C@H](C)[C@H](NC(=O)[C@@H](NC(=O)[C@H](CO)NC(=O)[C@@H](NC(=O)[C@H](CCC(N)=O)NC(=O)[C@H](Cc1c[nH]c2ccccc12)NC(=O)[C@H](CCCNC(=N)N)NC(=O)[C@H](CO)NC(=O)[C@H](CC(N)=O)NC(=O)[C@H](C)N)[C@@H](C)O)[C@@H](C)CC)C(=O)O [iCAL36Q^-4]
Ki (N1P1 (NHERF1 PDZ1)): 280 ± 100 µM | Ki (N1P2 (NHERF1 PDZ2)): > 1000 µM | Ki (N2P1 (NHERF2 PDZ1)): 300 ± 100 µM

ANSRVQDSII [iCAL36VQD^-3]
Ki (CALP (CAL PDZ domain) [1]): > 1000 µM | Ki (N1P1 (NHERF1 PDZ1)): > 1000 µM | Ki (N1P2 (NHERF1 PDZ2)): > 1000 µM | Ki (N2P1 (NHERF2 PDZ1)): > 1000 µM

ANSRVQDTRL [iCAL36VQDTRL]
Ki (N1P1 (NHERF1 PDZ1)): 2.5 ± 0.3 µM | Ki (N1P2 (NHERF1 PDZ2)): 6.5 ± 2.3 µM | Ki (N2P1 (NHERF2 PDZ1)): 3.8 ± 1.4 µM | Ki (N2P2 (NHERF2 PDZ2)): 0.94 ± 0.42 µM

ANSRWPTTRL [iCAL36TRL]
Ki (N1P1 (NHERF1 PDZ1)): 8 ± 1.4 µM | Ki (N2P1 (NHERF2 PDZ1)): 8.7 ± 3.1 µM | Ki (N2P2 (NHERF2 PDZ2)): 16.5 ± 3.9 µM

ANSRWQDTRL [iCAL36QDTRL]
Ki (N1P1 (NHERF1 PDZ1)): 1.5 ± 0.2 µM | Ki (N1P2 (NHERF1 PDZ2)): 6.7 ± 2.4 µM | Ki (N2P1 (NHERF2 PDZ1)): 3.1 ± 1.4 µM | Ki (N2P2 (NHERF2 PDZ2)): 1.1 ± 0.6 µM

N1P1 PDZ1 (from UniProt O14745)
Ki (iCAL36): > 1000 µM

N1P2 PDZ2 (from UniProt O14745)
Ki (CFTR (Homo sapiens)): 1.8 µM | Ki (iCAL36L): > 1000 µM | Ki (iCAL36): > 1000 µM

N2P1 PDZ1 (from UniProt Q15599)
Ki (iCAL36): > 1000 µM

N2P2 PDZ2 (from UniProt Q15599)
Ki (iCAL36): > 1000 µM

WQVTRV [kCAL01]
CALP affinity in words (CALP (CAL PDZ domain) [2]): highest affinity observed to date for a hexameric sequence

B1: N1P1 PDZ1 (protein)
chain: LPRLCCLEKGPNGYGFHLHGEKGKLGQYIRLVEPGSPAEKAGLLAGDRLVEVNGENVEKETHQQVVSRIRAALNAVRLLVVDPETDE
Kd (F*-CFTR6): 0.37 µM | Ki (iCAL36TRL): 8 µM | Ki (iCAL36Q-4): 280 µM | Ki (iCAL36VQD-3): > 1000 µM

B2: N2P2 PDZ2 (protein)
chain: LRPRLCHLRKGPQGYGFNLHSDKSRPGQYIRSVDPGSPAARSGLRAQDRLIEVNGQNVEGLRHAEVVASIKAREDEARLLVVDPETD
Ki (iCAL36QDTRL): 1.1 µM | Ki (iCAL36TRL): 16.5 µM | Ki (iCAL36Q-4): 450 µM

B3: N2P1 PDZ1 (protein)
chain: RPRLCRLVRGEQGYGFHLHGEKGRRGQFIRRVEPGSPAEAAALRAGDRLVEVNGVNVEGETHHQVVQRIKAVEGQTRLLVVDQETD
Ki (iCAL36QDTRL): 3.1 µM | Ki (iCAL36TRL): 8.7 µM | Ki (iCAL36Q-4): 300 µM | Ki (iCAL36VQD-3): > 1000 µM

B4: N1P2 PDZ2 (protein)
chain: RPRLCTMKKGPSGYGFNLHSDKSKPGQFIRSVDPDSPAEASGLRAQDRIVEVNGVCMEGKQHGDVVSAIRAGGDETKLLVVDRETDE
Ki (iCAL36TRL): 110 µM | Ki (iCAL36Q-4): > 1000 µM | Ki (iCAL36VQD-3): > 1000 µM
